{
  "source": "patent US20090069565A1",
  "about": "“NEW INDOLE DERIVATIVES AS FACTOR XA INHIBITORS” (priority 2001, published 2009)",
  "data": [
    {"biological_target": "human factor Xa (Homo sapiens, UniProt P00742)", "sequence (P00742 235-488 limits assumed)": "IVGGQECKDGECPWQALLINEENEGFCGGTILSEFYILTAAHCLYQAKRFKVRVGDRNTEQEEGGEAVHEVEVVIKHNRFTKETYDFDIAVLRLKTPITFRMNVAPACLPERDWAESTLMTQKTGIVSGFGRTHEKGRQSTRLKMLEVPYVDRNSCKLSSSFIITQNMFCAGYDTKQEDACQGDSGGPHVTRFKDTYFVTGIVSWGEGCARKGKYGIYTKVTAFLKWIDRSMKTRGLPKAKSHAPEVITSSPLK", "sequence (P00742 41-179 partner limits assumed)": "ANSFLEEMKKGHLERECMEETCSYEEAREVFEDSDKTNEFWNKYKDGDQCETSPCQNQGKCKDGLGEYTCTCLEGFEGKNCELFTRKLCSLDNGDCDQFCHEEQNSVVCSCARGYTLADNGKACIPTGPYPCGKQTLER", "assay": "Factor Xa assay (chromogenic, substrate S-2765);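 also: purified enzyme preincubated with inhibitor for 10 min before substrate addition, final reaction volume 100 µl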", "format": "biochemical", "details": "inhibition constant for factor Xa; purified enzyme 0.5 nM, substrate S-2765 140 μM, 25° C., pH 7.8; Ki=IC50/{1+(substrate concentration/Km)}; read-out: Ki(FXa)", "units": {"Ki": "nM"}, "values": [
      {"smiles": "CC(C)N1CCC(NC(=O)c2cc3ccccc3n2Cc2cc(-c3ccc(Cl)cc3)no2)CC1", "note": "[Example 211, 1-[3-(4-Chloro-phenyl)-isoxazol-5-ylmethyl]-1H-indole-2-carboxylic acid (1-isopropyl-piperidin-4-yl)-amide]", "Ki": 400},
      {"smiles": "CC(C)N1CCC(NC(=O)c2cc3ccccc3n2Cc2cc(-c3ccc(Cl)cc3)on2)CC1", "note": "[Example 212, 1-[5-(4-Chloro-phenyl)-isoxazol-3-ylmethyl]-1H-indole-2-carboxylic acid (1-isopropyl-piperidin-4-yl)-amide]", "Ki": 810},
      {"smiles": "CC(C)N1CCC(NC(=O)c2cc3ccccc3n2Cc2nc(-c3ccc(Cl)cc3)no2)CC1", "note": "[Example 213, 1-[3-(4-Chloro-phenyl)-[1,2,4]oxadiazol-5-ylmethyl]-1H-indole-2-carboxylic acid (1-isopropyl-piperidin-4-yl)-amide]", "Ki": 2230},
      {"smiles": "CC(C)N1CC[C@@H](NC(=O)c2cc3ccccc3n2Cc2cc(-c3ccc(Cl)s3)on2)C1", "note": "[Example 221, R-1-[5-(5-Chloro-thiophen-2-yl)-isoxazol-3-ylmethyl]-1H-indole-2-carboxylic acid (1-isopropyl-pyrrolidin-3-yl)-amide]", "Ki": 48},
      {"smiles": "CC(C)N1CC[C@H](NC(=O)c2cc3ccccc3n2Cc2cc(-c3ccc(Cl)s3)on2)C1", "note": "[Example 222, S-1-[5-(5-Chloro-thiophen-2-yl)-isoxazol-3-ylmethyl]-1H-indole-2-carboxylic (1-isopropyl-pyrrolidin-3-yl)-amide]", "Ki": 103}
    ]},
    {"biological_target": "human factor Xa (Homo sapiens, UniProt P00742)", "assay": "Factor Xa assay (chromogenic, substrate S-2765);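 also: purified enzyme preincubated with inhibitor for 10 min before substrate addition, final reaction volume 100 µl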", "format": "biochemical", "details": "read-out: Ki(FXa)", "units": {"Ki": "nM"}, "values": [
      {"smiles": "CC(C)N1CCC(NC(=O)c2cc3cc(S(C)(=O)=O)ccc3n2CC(=O)Nc2ccc(Cl)cn2)CC1", "note": "[Example 214, 1-[(5-Chloro-pyridin-2-ylcarbamoyl)-methyl]-5-methanesulfonyl-1H-indole-2-carboxylic acid (1-isopropyl-piperidin-4-yl)-amide]", "Ki": 52},
      {"smiles": "CC(C)N1CCC(NC(=O)c2cc3cc(S(C)(=O)=O)ccc3n2CC(=O)Nc2ccc(Cl)cc2)CC1", "note": "[Example 215, 1-[(4-Chloro-phenylcarbamoyl)-methyl]-5-methanesulfonyl-1H-indole-2-carboxylic acid (1-isopropyl-piperidin-4-yl)-amide]", "Ki": 23},
      {"smiles": "CC(C)N1CCC(NC(=O)c2cc3cc(Cl)ccc3n2CC(=O)Nc2ccc(Cl)cn2)CC1", "note": "[Example 216, 5-Chloro-1-[(5-chloro-pyridin-2-ylcarbamoyl)-methyl]-1H-indole-2-carboxylic acid (1-isopropyl-piperidin-4-yl)-amide]", "Ki": 9},
      {"smiles": "CC(C)N1CCC(NC(=O)c2cc3cc(F)ccc3n2CC(=O)Nc2ccc(Cl)cn2)CC1", "note": "[Example 217, 1-[(5-Chloro-pyridin-2-ylcarbamoyl)-methyl]-5-fluoro-1H-indole-2-carboxylic acid (1-isopropyl-piperidin-4-yl)-amide]", "Ki": 700},
      {"smiles": "CC(C)N1CCC(NC(=O)c2cc3cc(F)cc(F)c3n2CC(=O)Nc2ccc(Cl)cn2)CC1", "note": "[Example 218, 1-[(5-Chloro-pyridin-2-ylcarbamoyl)-methyl]-5,7-difluoro-1H-indole-2-carboxylic acid (1-isopropyl-piperidin-4-yl)-amide]", "Ki": 1},
      {"smiles": "CCN1CC[C@H](NC(=O)c2cc3ccccc3n2Cc2cc(-c3ccc(Cl)s3)on2)C1", "note": "[Example 219]", "Ki": 173},
      {"smiles": "CCN1CC[C@@H](NC(=O)c2cc3ccccc3n2Cc2cc(-c3ccc(Cl)s3)on2)C1", "note": "[Example 220, R-1-[5-(5-Chloro-thiophen-2-yl)-isoxazol-3-ylmethyl]-1H-indole-2-carboxylic acid (1-ethyl-pyrrolidin-3-yl)-amide]", "Ki": 102},
      {"smiles": "CCOC(=O)CN(C(=O)c1cc2c(C(F)(F)F)cccc2n1Cc1cc(-c2ccc(Cl)s2)on1)C1CCN(C(C)C)CC1", "note": "[Example 223, [{1-[5-(5-Chloro-thiophen-2-yl)-isoxazol-3-ylmethyl]-4-trifluoromethyl-1H-indole-2-carbonyl}-(1-isopropyl-piperidin-4-yl)-amino]-acetic acid ethyl ester]", "Ki": 110},
      {"smiles": "CCOC(=O)CN(C(=O)c1cc2c(C)ccc(C)c2n1Cc1cc(-c2ccc(Cl)s2)on1)C1CCN(C(C)C)CC1", "note": "[Example 224, [{1-[5-(5-Chloro-thiophen-2-yl)-isoxazol-3-ylmethyl]-4,7-dimethyl-1H-indole-2-carbonyl}-(1-isopropyl-piperidin-4-yl)-amino]-acetic acid ethyl ester]", "Ki": 21},
      {"smiles": "CCOC(=O)CN(C(=O)c1cc2c(OC)ccc(OC)c2n1Cc1cc(-c2ccc(Cl)s2)on1)C1CCN(C(C)C)CC1", "note": "[Example 225, [{1-[5-(5-Chloro-thiophen-2-yl)-isoxazol-3-ylmethyl]-4,7-dimethoxy-1H-indole-2-carbonyl}-(1-isopropyl-piperidin-4-yl)-amino]-acetic acid ethyl ester]", "Ki": 26},
      {"smiles": "CCOC(=O)CN(C(=O)c1cc2c(Cl)ccc(Cl)c2n1Cc1cc(-c2ccc(Cl)s2)on1)C1CCN(C(C)C)CC1", "note": "[Example 226, [{4,7-Dichloro-1-[5-(5-chloro-thiophen-2-yl)-isoxazol-3-ylmethyl]-1H-indole-2-carbonyl}-(1-isopropyl-piperidin-4-yl)-amino]-acetic acid ethyl ester]", "Ki": 83},
      {"smiles": "CCOC(=O)CN(C(=O)c1cc2cc(Cl)cc(Cl)c2n1Cc1cc(-c2ccc(Cl)s2)on1)C1CCN(C(C)C)CC1", "note": "[Example 227, [{5,7-Dichloro-1-[5-(5-chloro-thiophen-2-yl)-isoxazol-3-ylmethyl]-1H-indole-2-carbonyl}-(1-isopropyl-piperidin-4-yl)-amino]-acetic acid ethyl ester]", "Ki": 88},
      {"smiles": "CCOC(=O)CN(C(=O)c1cc2c(Cl)cccc2n1Cc1cc(-c2ccc(Cl)s2)on1)C1CCN(C(C)C)CC1", "note": "[Example 228, [{4-Chloro-1-[5-(5-chloro-thiophen-2-yl)-isoxazol-3-ylmethyl]-1H-indole-2-carbonyl}-(1-isopropyl-piperidin-4-yl)-amino]-acetic acid ethyl ester]", "Ki": 51},
      {"smiles": "CC(C)N1CCC(N(CC(=O)O)C(=O)c2cc3c(C(F)(F)F)cccc3n2Cc2cc(-c3ccc(Cl)s3)on2)CC1", "note": "[Example 229, [{1-[5-(5-Chloro-thiophen-2-yl)-isoxazol-3-ylmethyl]-4-trifluoromethyl-1H-indole-2-carbonyl}-(1-isopropyl-piperidin-4-yl)-amino]-acetic acid]", "Ki": 172},
      {"smiles": "Cc1ccc(C)c2c1cc(C(=O)N(CC(=O)O)C1CCN(C(C)C)CC1)n2Cc1cc(-c2ccc(Cl)s2)on1", "note": "[Example 230, [{1-[5-(5-Chloro-thiophen-2-yl)-isoxazol-3-ylmethyl]-4,7-dimethyl-1H-indole-2-carbonyl}-(1-isopropyl-piperidin-4-yl)-amino]-acetic acid]", "Ki": 12},
      {"smiles": "COc1ccc(OC)c2c1cc(C(=O)N(CC(=O)O)C1CCN(C(C)C)CC1)n2Cc1cc(-c2ccc(Cl)s2)on1", "note": "[Example 231, [{1-[5-(5-Chloro-thiophen-2-yl)-isoxazol-3-ylmethyl]-4,7-dimethoxy-1H-indole-2-carbonyl}-(1-isopropyl-piperidin-4-yl)-amino]-acetic acid]", "Ki": 20},
      {"smiles": "CC(C)N1CCC(N(CC(=O)O)C(=O)c2cc3c(Cl)ccc(Cl)c3n2Cc2cc(-c3ccc(Cl)s3)on2)CC1", "note": "[Example 232, [{4,7-Dichloro-1-[5-(5-chloro-thiophen-2-yl)-isoxazol-3-ylmethyl]-1H-indole-2-carbonyl}-(1-isopropyl-piperidin-4-yl)-amino]-acetic acid]", "Ki": 55},
      {"smiles": "CC(C)N1CCC(N(CC(=O)O)C(=O)c2cc3cc(Cl)cc(Cl)c3n2Cc2cc(-c3ccc(Cl)s3)on2)CC1", "note": "[Example 233, [{5,7-Dichloro-1-[5-(5-chloro-thiophen-2-yl)-isoxazol-3-ylmethyl]-1H-indole-2-carbonyl}-(1-isopropyl-piperidin-4-yl)-amino]-acetic acid]", "Ki": 74},
      {"smiles": "CC(C)N1CCC(N(CC(=O)O)C(=O)c2cc3c(Cl)cccc3n2Cc2cc(-c3ccc(Cl)s3)on2)CC1", "note": "[Example 234, [{4-Chloro-1-[5-(5-chloro-thiophen-2-yl)-isoxazol-3-ylmethyl]-1H-indole-2-carbonyl}-(1-isopropyl-piperidin-4-yl)-amino]-acetic acid]", "Ki": 56},
      {"smiles": "CC(C)OC(=O)c1ccc2c(c1)cc(C(=O)NC1CCN(C(C)C)CC1)n2Cc1cc(-c2ccc(Cl)s2)on1", "note": "[Example 235, 1-[5-(5-Chloro-thiophen-2-yl)-isoxazol-3-ylmethyl]-2-(1-isopropyl-piperidin-4-ylcarbamoyl)-1H-indole-5-carboxylic acid isopropyl ester]", "Ki": 42},
      {"smiles": "CC(C)N1CCC(NC(=O)c2cc3cc(C(=O)O)ccc3n2Cc2cc(-c3ccc(Cl)s3)on2)CC1", "note": "[Example 236, 1-[5-(5-Chloro-thiophen-2-yl)-isoxazol-3-ylmethyl]-2-(1-isopropyl-piperidin-4-ylcarbamoyl)-1H-indole-5-carboxylic acid]", "Ki": 10},
      {"smiles": "CC(C)N1CCC(NC(=O)c2cc3cc(CO)ccc3n2Cc2cc(-c3ccc(Cl)s3)on2)CC1", "note": "[Example 237, 1-[5-(5-Chloro-thiophen-2-yl)-isoxazol-3-ylmethyl]-5-hydroxymethyl-1H-indole-2-carboxylic acid (1-isopropyl-piperidin-4-yl)-amide]", "Ki": 3},
      {"smiles": "CCOC(=O)c1ccc2c(c1)cc(C(=O)NC1CCN(C(C)C)CC1)n2Cc1cc(-c2ccc(Cl)s2)on1", "note": "[Example 238, 1-[5-(5-Chloro-thiophen-2-yl)-isoxazol-3-ylmethyl]-2-(1-isopropyl-piperidin-4-ylcarbamoyl)-1H-indole-5-carboxylic acid ethyl ester]", "Ki": 11},
      {"smiles": "COC(=O)c1ccc2c(c1)cc(C(=O)NC1CCN(C(C)C)CC1)n2Cc1cc(-c2ccc(Cl)s2)on1", "note": "[Example 239, 1-[5-(5-Chloro-thiophen-2-yl)-isoxazol-3-ylmethyl]-2-(1-isopropyl-piperidin-4-ylcarbamoyl)-1H-indole-5-carboxylic acid methyl ester]", "Ki": 5},
      {"smiles": "CC(C)N1CCC(NC(=O)c2cc3cc(C(=O)OCOC(=O)C(C)(C)C)ccc3n2Cc2cc(-c3ccc(Cl)s3)on2)CC1", "note": "[Example 240, 1-[5-(5-Chloro-thiophen-2-yl)-isoxazol-3-ylmethyl]-2-(1-isopropyl-piperidin-4-ylcarbamoyl)-1H-indole-5-carboxylic acid 2,2-dimethyl-propionyloxymethyl ester]", "Ki": 35}
    ]}
  ]
}
